Test results from the NIST ThermoML archive (doi:10.1016/j.fluid.2011.07.018).
± gives the expanded uncertainty stated by the source.

Assay: xn = mol fraction of the nth substance listed
Settings: 298.15 K, 101 kPa, Liquid; for speed of sound: Linear variable-path acoustic interferometer; for mass density: Vibrating tube method

Clc1ccc(Cl)c(Cl)c1 [1,2,4-trichlorobenzene] + C1CCOC1
Settings	mass density [kg/m3]	speed of sound [m/s]
x2 = 0	1447.66 ± 1.9	1272 ± 3
x2 = 0.0358	1431.9 ± 1.9	1303 ± 3
x2 = 0.1451	1382.41 ± 1.8	1326 ± 3
x2 = 0.2456	1334.05 ± 1.7	1346 ± 3
x2 = 0.3483	1282.95 ± 1.6	1355 ± 3
x2 = 0.4617	1224.12 ± 1.4	1352 ± 3
x2 = 0.6012	1147.15 ± 1.3	1339 ± 3
x2 = 0.7076	1083.62 ± 1.2	1327 ± 3
x2 = 0.7639	1048.78 ± 1.1	1320 ± 3
x2 = 0.8162	1014.57 ± 1.1	1313 ± 3
x2 = 0.8743	975.21 ± 1.1	1305 ± 3
x2 = 0.9351	931.35 ± 1.1	1300 ± 3
x2 = 0.9642	909.82 ± 1.1	1298 ± 3

Clc1ccccc1Cl [1,2-dichlorobenzene] + C1CCOC1
Settings	mass density [kg/m3]	speed of sound [m/s]
x2 = 0	1300.35 ± 1.5	1269 ± 3
x2 = 0.0327	1288.55 ± 1.5	1274 ± 3
x2 = 0.155	1244.23 ± 1.4	1290 ± 3
x2 = 0.3046	1189.35 ± 1.3	1305 ± 3
x2 = 0.4457	1135.03 ± 1.2	1307 ± 3
x2 = 0.5709	1084.3 ± 1.1	1304 ± 3
x2 = 0.6161	1065.67 ± 1.1	1299 ± 3
x2 = 0.6885	1034.31 ± 1	1295 ± 3
x2 = 0.7973	984.99 ± 0.94	1283 ± 3
x2 = 0.8425	963.65 ± 0.93	1278 ± 3
x2 = 0.8852	942.63 ± 0.92	1274 ± 3
x2 = 0.9451	911.72 ± 0.91	1272 ± 3

Clc1cccc(Cl)c1 [1,3-dichlorobenzene] + C1CCOC1
Settings	mass density [kg/m3]	speed of sound [m/s]
x2 = 0	1282.82 ± 1.5	1257 ± 2
x2 = 0.0332	1272.22 ± 1.5	1259 ± 3
x2 = 0.1432	1234.54 ± 1.4	1272 ± 3
x2 = 0.272	1189.62 ± 1.3	1276 ± 3
x2 = 0.3809	1150.84 ± 1.2	1277 ± 3
x2 = 0.5198	1099.15 ± 1.1	1276 ± 3
x2 = 0.6244	1057.78 ± 1	1275 ± 3
x2 = 0.696	1027.92 ± 1	1274 ± 3
x2 = 0.8044	980.28 ± 0.93	1270 ± 3
x2 = 0.845	961.47 ± 0.93	1265 ± 3
x2 = 0.8852	941.79 ± 0.92	1265 ± 3
x2 = 0.942	912.92 ± 0.9	1266 ± 3

Cc1ccccc1Cl [2-chlorotoluene] + C1CCOC1
Settings	mass density [kg/m3]	speed of sound [m/s]
x2 = 0	1077.63 ± 1	1295 ± 3
x2 = 0.1234	1057.75 ± 0.97	1324 ± 3
x2 = 0.264	1034.49 ± 0.93	1345 ± 3
x2 = 0.3444	1020.53 ± 0.9	1347 ± 3
x2 = 0.4669	998.27 ± 0.86	1348 ± 3
x2 = 0.5809	976.32 ± 0.84	1343 ± 3
x2 = 0.7119	949.73 ± 0.81	1331 ± 3
x2 = 0.7706	937.14 ± 0.8	1326 ± 3
x2 = 0.8264	924.69 ± 0.79	1318 ± 3
x2 = 0.8858	910.9 ± 0.78	1310 ± 3
x2 = 0.9564	893.59 ± 0.76	1298 ± 3

Cc1ccccc1[N+](=O)[O-] [2-nitrotoluene] + C1CCOC1
Settings	mass density [kg/m3]	speed of sound [m/s]
x2 = 0	1155.24 ± 1.2	2112 ± 3
x2 = 0.1021	1135.24 ± 1.1	2120 ± 3
x2 = 0.2146	1111.7 ± 1.1	2034 ± 3
x2 = 0.3019	1092.19 ± 1.1	1939 ± 3
x2 = 0.4211	1063.58 ± 1	1791 ± 3
x2 = 0.4509	1056.04 ± 0.99	1754 ± 3
x2 = 0.521	1037.67 ± 0.96	1677 ± 3
x2 = 0.6045	1014.59 ± 0.92	1593 ± 3
x2 = 0.7211	979.81 ± 0.87	1495 ± 3
x2 = 0.8014	953.93 ± 0.86	1433 ± 3
x2 = 0.9324	907.94 ± 0.82	1325 ± 3

Cc1cccc(Cl)c1 [3-chlorotoluene] + C1CCOC1
Settings	mass density [kg/m3]	speed of sound [m/s]
x2 = 0	1066.01 ± 0.98	1279 ± 3
x2 = 0.0662	1055.82 ± 0.97	1293 ± 3
x2 = 0.1944	1036.15 ± 0.93	1313 ± 3
x2 = 0.2787	1022.98 ± 0.9	1319 ± 3
x2 = 0.3891	1004.96 ± 0.87	1324 ± 3
x2 = 0.5228	981.71 ± 0.84	1325 ± 3
x2 = 0.6399	960.03 ± 0.82	1320 ± 3
x2 = 0.7368	941.06 ± 0.8	1313 ± 3
x2 = 0.7972	928.35 ± 0.79	1307 ± 3
x2 = 0.8601	914.63 ± 0.77	1300 ± 3
x2 = 0.9208	900.75 ± 0.76	1290 ± 3
x2 = 0.945	895.28 ± 0.76	1287 ± 3
x2 = 0.9739	888.4 ± 0.75	1282 ± 3

Cc1cccc([N+](=O)[O-])c1 [3-nitrotoluene] + C1CCOC1
Settings	mass density [kg/m3]	speed of sound [m/s]
x2 = 0	1149.67 ± 1.2	2100 ± 3
x2 = 0.0914	1132.22 ± 1.1	2093 ± 3
x2 = 0.1522	1120.11 ± 1.1	2029 ± 3
x2 = 0.2026	1109.64 ± 1.1	1969 ± 3
x2 = 0.3146	1085.13 ± 1	1847 ± 3
x2 = 0.4209	1060.02 ± 0.99	1719 ± 3
x2 = 0.5476	1027.61 ± 0.93	1588 ± 3
x2 = 0.6024	1012.66 ± 0.91	1542 ± 3
x2 = 0.7519	968.47 ± 0.86	1438 ± 3
x2 = 0.8415	939.33 ± 0.84	1380 ± 3
x2 = 0.9324	907.47 ± 0.82	1321 ± 3

Cc1ccc(Cl)cc1 [4-chlorotoluene] + C1CCOC1
Settings	mass density [kg/m3]	speed of sound [m/s]
x2 = 0	1064.21 ± 0.97	1296 ± 3
x2 = 0.0653	1054.92 ± 0.96	1305 ± 3
x2 = 0.168	1040.16 ± 0.93	1308 ± 3
x2 = 0.3251	1015.77 ± 0.89	1308 ± 3
x2 = 0.4558	994.13 ± 0.85	1304 ± 3
x2 = 0.5489	977.7 ± 0.83	1301 ± 3
x2 = 0.6335	962.01 ± 0.82	1296 ± 3
x2 = 0.7021	948.73 ± 0.8	1293 ± 3
x2 = 0.7609	936.9 ± 0.79	1288 ± 3
x2 = 0.8226	923.96 ± 0.78	1284 ± 3
x2 = 0.906	905.08 ± 0.77	1280 ± 3
x2 = 0.941	896.99 ± 0.76	1277 ± 3

C1CCOC1 [tetrahydrofuran] + Cc1ccc(Cl)cc1
x1 = 1
Settings	mass density [kg/m3]	speed of sound [m/s]
–	882.09 ± 0.71	1270 ± 3

C1CCOC1 [tetrahydrofuran] + Cc1cccc(Cl)c1
x1 = 1
Settings	mass density [kg/m3]	speed of sound [m/s]
–	882.09 ± 0.71	1270 ± 3

C1CCOC1 [tetrahydrofuran] + Cc1cccc([N+](=O)[O-])c1
x1 = 1
Settings	mass density [kg/m3]	speed of sound [m/s]
–	882.09 ± 0.71	1270 ± 3

C1CCOC1 [tetrahydrofuran] + Cc1ccccc1Cl
x1 = 1
Settings	mass density [kg/m3]	speed of sound [m/s]
–	882.09 ± 0.71	1270 ± 3

C1CCOC1 [tetrahydrofuran] + Cc1ccccc1[N+](=O)[O-]
x1 = 1
Settings	mass density [kg/m3]	speed of sound [m/s]
–	882.09 ± 0.71	1270 ± 3

C1CCOC1 [tetrahydrofuran] + Clc1ccc(Cl)c(Cl)c1
x1 = 1
Settings	mass density [kg/m3]	speed of sound [m/s]
–	882.09 ± 0.71	1270 ± 3

C1CCOC1 [tetrahydrofuran] + Clc1cccc(Cl)c1
x1 = 1
Settings	mass density [kg/m3]	speed of sound [m/s]
–	882.09 ± 0.71	1270 ± 3

C1CCOC1 [tetrahydrofuran] + Clc1ccccc1Cl
x1 = 1
Settings	mass density [kg/m3]	speed of sound [m/s]
–	882.09 ± 0.71	1270 ± 3
